{"source": "patent US20250355001A1", "about": "“METHOD FOR DETECTING A TAU PROTEIN FRAGMENT IN A SAMPLE” (GTINVENT LIMITED, priority 2022, published 2025)", "biological_target": "dGAE aggregates (Homo sapiens, UniProt P10636)", "sequence (P10636 614-708)": "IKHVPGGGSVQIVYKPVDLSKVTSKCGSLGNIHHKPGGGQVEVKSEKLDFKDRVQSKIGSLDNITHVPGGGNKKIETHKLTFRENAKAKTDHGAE", "assay": "Epitope occlusion assay: dGAE aggregation with/without LMTM, 423 mAb capture ELISA", "type": "biochemical", "settings": "LMTM 1:5 ratio, 24 h 37 °C", "experimental": "During dGAE aggregation in vitro, scAb binding regions on dGA/dGAE are ‘hidden’ or ‘occluded’ which leads to a loss of immunoreactivity in aggregation samples. Here we have shown the occlusion of binding regions in aggregated dGAE samples and the recovery of immunoreactivity in the presence of LMTM, a tau-aggregation inhibitor. For preparing the aggregates, 10 μl 10 mM DTT was added to 1000 μl 100 μM dGAE and agitated with/without LMTM (1:5 ratio) at 700 rpm for 24 h at 37° C. Following overnight agitation, one third of each sample was kept aside as ‘total’ and the rest was spun down at 16000×g for 30 min and separated into ‘supernatant’ and ‘pellet’. The pellet was then resuspended in half the original volume for further experiments. […] Doubling dilutions of dGAE aggregate ‘total’, ‘supernatant’ and ‘pellet’ samples at 10 μg/ml starting concentration were added to designated wells in doubling dilutions in 1×PBS. dGAE monomer (non-aggregated) was included as assay control. All double dilutions were done in final volumes of 100 μl. This was left to incubate on lab bench for 1 h followed by the addition of test scAbs at 10 μg/ml. Anti-HuCk HRP labelled secondary antibody was added as described previously and ELISA data generated is represented using the graph below."}
{"smiles": "CN(C)c1ccc2c(c1)Sc1cc(N(C)C)ccc1N2.CS(=O)(=O)O.CS(=O)(=O)O", "note": "[LMTM, reference compound]", "values": [{"measurement": "effect on dGAE aggregation", "result": "preventing the aggregation event"}]}
